# Experimental data: patent publication US20210330611A1, “THERAPY FOR NEUROLOGICAL DISEASES/DISORDERS” (priority 2020, published 2021)
# Where a name gives a salt, the structure may show the parent alone. Read-outs that look alike come from different tables or passages of the source.
# Key:
# [1] = test system: fibrin-induced microglia activation; test: Image-based assay of fibrin-induced microglia activation (HTS and dose response); format: cell-based, rat; details: for inhibition at 10 µM: Rattus norvegicus, Microglia, read-out: Fibrin % inhibition
# [2] = test system: LPS-induced microglia activation; test: Image-based assay of LPS-induced microglia activation (HTS and dose response); format: cell-based, rat
# [3] = test system: fibrin- and LPS-induced microglia activation; test: cells; format: cell-based, rat
# [4] = test system: primary rat microglia;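 on Fibrin % cell toxicity: share of dead cells sized under 150 µm2 at 10 µM in fibrin-stimulated microglia HTS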
# [5] = test system: primary rat microglia; remark: listed apart in the source;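 on Fibrin % cell toxicity: share of dead cells sized under 150 µm2 at 10 µM in fibrin-stimulated microglia HTS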
# [6] = primary microglia HTS, fibrin stimulation, cell size >800 μm2 as marker of activation
# [7] = Rattus norvegicus, Microglia, 48 h; read-out: LPS % inhibition
# [8] = classification by fibrin and LPS inhibition in HTS
# [9] = Rattus norvegicus, Microglia, 48 h, read-out: LPS % inhibition
# [10] = primary microglia HTS, fibrin stimulation, increased cell size (>800 μm^2) as marker of activation
# [11] = Rattus norvegicus, Microglia, 48 h, primary microglia HTS, LPS stimulation; increased cell size (>800 μm^2) as marker of activation; read-out: LPS % inhibition
# [12] = quadrant by fibrin and LPS inhibition in HTS of 1907 compounds
Structure (SMILES),"inhibition at 10 µM [1, 6] [%]","inhibition at 10 µM [2, 7] [%]","Quadrant (FIG. 5b) [3, 8]",Fibrin % cell toxicity ([4]; rat) [%],LPS % cell toxicity ([5]; rat) [%],also measured
CNNCc1ccc(C(=O)NC(C)C)cc1 [Procarbazine],-21,9,Q4,1,0,–
CC(=O)[C@H]1CC[C@H]2[C@@H]3CCC4=CC(=O)CC[C@]4(C)[C@H]3CC[C@]12C [Progesterone],36,36,Q4,1,0,–
CC(C)NCC(O)c1ccc2ccccc2c1 (stereo not drawn) [Pronetalol Hydrochloride],-12,10,Q4,1,0,–
CCCc1cc(=O)[nH]c(=S)[nH]1 [Propylthiouracil],–,–,–,0,0,"inhibition at 10 µM [1]: -4%; inhibition at 10 µM [2, 9]: 8%; Quadrant (FIG. 5b) [3]: Q4"
NC(=O)[C@@H]1CCCN1C(=O)[C@H](Cc1cnc[nH]1)NC(=O)[C@@H]1CCC(=O)N1 [Protirelin],–,–,Q4,–,–,"Fibrin % inhibition [1, 6]: 2%; LPS % inhibition [2]: 15%; Fibrin % cell toxicity [4]: 1%; LPS % cell toxicity [5]: 1%"
CNCCCC1c2ccccc2C=Cc2ccccc21 [Protriptyline],–,–,–,1,0,"inhibition at 10 µM [1]: 21%; inhibition at 10 µM [2, 9]: 15%; Quadrant (FIG. 5b) [3]: Q4"
Cc1ncc(CO)c(CO)c1O [Pyridoxine],1,21,Q4,1,0,–
[O-][n+]1ccccc1[S-].[O-][n+]1ccccc1[S-].[Zn+2] [Pyrithione Zinc],–,–,–,–,–,Fibrin % inhibition ([1]; 10 µM): 109%; LPS % inhibition ([2]; 10 µM): 127%; Quadrant (FIG. 5b) [3]: Q2; Fibrin % cell toxicity [4]: 86%; LPS % cell toxicity [5]: 87%
CCN(CC)CCCC(C)Nc1c2ccc(Cl)cc2nc2ccc(OC)cc12 (stereo not drawn) [Quinacrine],–,–,–,1,65,"inhibition at 10 µM [1, 10]: 24%; inhibition at 10 µM [2, 11]: 118%; Quadrant (FIG. 5b) [3, 12]: Q1"
C=C[C@H]1C[N@@]2CC[C@H]1C[C@@H]2[C@@H](O)c1ccnc2ccc(OC)cc12 [Quinidine],-6,20,Q4,1,0,–
C=C[C@H]1C[N@@]2CC[C@H]1C[C@H]2[C@H](O)c1ccnc2ccc(OC)cc12 [Quinine Sulfate],–,–,Q4,1,1,"Fibrin % inhibition [1, 6]: −30%; LPS % inhibition [2]: 14%"
C=C[C@H]1C[N@@]2CC[C@H]1C[C@H]2[C@H](O)c1ccnc2ccc(OC)cc12 [Quinine],–,–,Q4,1,0,"Fibrin % inhibition [1, 6]: −32%; LPS % inhibition [2]: −7%"
O=C(c1ccc(OCCN2CCCCC2)cc1)c1c(-c2ccc(O)cc2)sc2cc(O)ccc12 [Raloxifene],–,–,–,0,1,"inhibition at 10 µM [1, 10]: 7%; inhibition at 10 µM [2, 11]: 60%; Quadrant (FIG. 5b) [3, 12]: Q1"
CCOc1ccccc1OC(c1ccccc1)C1CNCCO1.CS(=O)(=O)O (stereo not drawn) [Reboxetine Mesylate],–,–,Q4,–,–,"Fibrin % inhibition [1, 6]: −33%; LPS % inhibition ([2]; primary microglia HTS, LPS stimulation, cell size >800 μm2 as marker of activation): 8%; Fibrin % cell toxicity [4]: 1%; LPS % cell toxicity [5]: 0%"
COC(=O)[C@H]1[C@H]2C[C@@H]3c4[nH]c5cc(OC)ccc5c4CCN3C[C@H]2C[C@@H](OC(=O)c2cc(OC)c(OC)c(OC)c2)[C@@H]1OC [Reserpine],–,–,–,3,7,"inhibition at 10 µM [1, 10]: -4%; inhibition at 10 µM [2, 11]: 64%; Quadrant (FIG. 5b) [3, 12]: Q1"
